# From patent US9150575B2, “Piperidinylpyrazolopyridine derivative” (Daiichi Sankyo Company, Limited, priority 2012, dated 2015)
# Biological target: T1, LCAT (Homo sapiens, UniProt P04180)
# T1 construct: The obtained fraction was dialyzed against phosphate-buffered saline (pH 7.4) and used as an enzyme source and an acceptor for LCAT; from tissue; host or cells: HDL3 fraction (1.125<specific gravity<1.210 g/mL) of plasma from a healthy person
# T1 sequence (P04180 25-440): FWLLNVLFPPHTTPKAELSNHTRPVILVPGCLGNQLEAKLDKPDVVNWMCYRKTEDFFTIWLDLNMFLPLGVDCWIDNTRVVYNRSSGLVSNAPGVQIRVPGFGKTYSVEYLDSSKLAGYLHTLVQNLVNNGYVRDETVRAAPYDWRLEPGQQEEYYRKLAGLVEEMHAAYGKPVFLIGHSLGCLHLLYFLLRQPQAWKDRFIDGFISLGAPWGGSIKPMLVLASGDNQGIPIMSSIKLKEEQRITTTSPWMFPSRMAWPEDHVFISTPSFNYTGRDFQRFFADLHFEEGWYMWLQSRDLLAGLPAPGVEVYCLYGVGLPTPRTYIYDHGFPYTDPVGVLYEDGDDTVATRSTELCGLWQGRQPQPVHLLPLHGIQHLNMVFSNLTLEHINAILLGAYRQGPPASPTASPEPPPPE
# Test: LCAT Activity Measurement (In Vitro)
# Assay type: biochemical
# Settings: EC50 of LCAT activation; HDL3 fraction from plasma of a healthy person as enzyme source and acceptor; [14C]cholesterol; 37° C., approximately 16 hours
# Procedure: A fraction composed of HDL3 (1.125<specific gravity<1.210 g/mL) was obtained from the plasma of a healthy person by density gradient centrifugation. The obtained fraction was dialyzed against phosphate-buffered saline (pH 7.4) and used as an enzyme source and an acceptor for LCAT. Each test drug was prepared by dissolution in dimethyl sulfoxide. [14C]Cholesterol containing DTNB (Ellman's reagent, final concentration: 0.5 mM), mercaptoethanol (final concentration: 12.5 mM), and 0.6% bovine serum albumin was added to phosphate-buffered saline (pH 7.4) containing 1 mg/mL HDL3, and the test drug was further added thereto at varying concentrations to adjust the whole amount to 80 μL. This mixture was incubated at 37° C. for approximately 16 hours. Then, a mixed solution of hexane and isopropanol (mixing ratio=3:2) was added thereto to stop the reaction. After stirring, the hexane layer was collected, and this layer was evaporated to dryness. A chloroform solution (concentration: 10 mg/mL) was added thereto, and the mixture was spotted onto a thin-layer silica gel plate and developed using a mixed solution of hexane, diethyl ether, and ethyl acetate (mixing ratio=85:15:2). The radioactivity of a portion corresponding to cholesterol oleate was measured using an imaging analyzer BAS-2500 (manufactured by Fujifilm Corp.). A sample non-supplemented with the test drug was similarly treated and assayed. The EC50 value of LCAT activation was calculated according to the expression given below relative to LCAT activity in the sample non-supplemented with the test drug.
# wherein X represents the logarithm of the concentration of the test drug;
# Y represents the responsiveness (LCAT activity) of the test drug;
# Top represents the maximum value (maximum plateau);
# Bottom represents the minimum value (minimum plateau); and
# EC50 represents the 50% effective concentration.
row,EC50 [µM],SMILES
1,0.035,"O=C1CC(O)(C(F)(F)F)c2c(C3CCN(c4ccc(C(F)(F)F)c(F)n4)CC3)n[nH]c2N1 (stereo not drawn) [Example 97, 3-{1-[6-Fluoro-5-(trifluoromethyl)pyridin-2-yl]piperidin-4-yl}-4-hydroxy-4-(trifluoromethyl)-1,4,5,7-tetrahydro-6H-pyrazolo[3,4-b]pyridin-6-one]"
2,0.077,"CCOC(=O)c1oc(N2CCC(c3n[nH]c4c3C(O)(C(F)(F)F)CC(=O)N4)CC2)nc1C(F)(F)F (stereo not drawn) [Example 91, Ethyl 2-{4-[4-hydroxy-6-oxo-4-(trifluoromethyl)-4,5,6,7-tetrahydro-1H-pyrazolo[3,4-b]pyridin-3-yl]piperidin-1-yl}-4-(trifluoromethyl)-1,3-oxazole-5-carboxylate]"
3,0.084,"CN(C)c1nc(N2CCC(c3n[nH]c4c3C(O)(C(F)(F)F)CC(=O)N4)CC2)cc(C(F)(F)F)n1 (stereo not drawn) [Example 93, 3-{1-[2-(Dimethylamino)-6-(trifluoromethyl)pyrimidin-4-yl]piperidin-4-yl}-4-hydroxy-4-(trifluoromethyl)-1,4,5,7-tetrahydro-6H-pyrazolo[3,4-b]pyridin-6-one]"
4,0.14,"CN(C)c1cc(N2CCC(c3n[nH]c4c3C(O)(C(F)(F)F)CC(=O)N4)CC2)nc(C(F)(F)F)n1 (stereo not drawn) [Example 86, 3-{1-[6-(Dimethylamino)-2-(trifluoromethyl)pyrimidin-4-yl]piperidin-4-yl}-4-hydroxy-4-(trifluoromethyl)-1,4,5,7-tetrahydro-6H-pyrazolo[3,4-b]pyridin-6-one]"
5,1.1,"N#Cc1cnc(N2CCC(c3n[nH]c4c3C(O)(C(F)(F)F)CC(=O)N4)CC2)c(C(F)(F)F)c1 (stereo not drawn) [Example 104, 6-{4-[4-Hydroxy-6-oxo-4-(trifluoromethyl)-4,5,6,7-tetrahydro-1H-pyrazolo[3,4-b]pyridin-3-yl]piperidin-1-yl}-5-(trifluoromethyl)pyridine-3-carbonitrile]"
6,0.027,"O=C1CC(O)(C(F)(F)F)c2c(C3CCN(c4ccc(-c5ccccc5)nn4)CC3)n[nH]c2N1 (stereo not drawn) [Example 105, 4-Hydroxy-3-[1-(6-phenylpyridazin-3-yl)piperidin-4-yl]-4-(trifluoromethyl)-1,4,5,7-tetrahydro-6H-pyrazolo[3,4-b]pyridin-6-one]"
7,1.55,"N#Cc1cccnc1N1CCC(c2n[nH]c3c2C(O)(C(F)(F)F)CC(=O)N3)CC1 (stereo not drawn) [Example 100, 2-{4-[4-Hydroxy-6-oxo-4-(trifluoromethyl)-4,5,6,7-tetrahydro-1H-pyrazolo[3,4-b]pyridin-3-yl]piperidin-1-yl}pyridine-3-carbonitrile]"
8,0.11,"O=C1CC(O)(C(F)(F)F)c2c(C3CCN(c4ncc(-c5ccccc5)s4)CC3)n[nH]c2N1 (stereo not drawn) [Example 89, 4-Hydroxy-3-[1-(5-phenyl-1,3-thiazol-2-yl)piperidin-4-yl]-4-(trifluoromethyl)-1,4,5,7-tetrahydro-6H-pyrazolo[3,4-b]pyridin-6-one]"

# More lines, now with the values behind:
row,SMILES,EC50 [µM]
1,"CC(C)Oc1ccc(N2CCC(c3n[nH]c4c3C(O)(C(F)(F)F)CC(=O)N4)CC2)nc1 (stereo not drawn) [Example 52, 4-Hydroxy-3-{1-[5-(propan-2-yloxy)pyridin-2-yl]piperidin-4-yl}-4-(trifluoromethyl)-1,4,5,7-tetrahydro-6H-pyrazolo[3,4-b]pyridin-6-one]",0.067
2,"Cc1cncc(N2CCC(c3n[nH]c4c3C(O)(C(F)(F)F)CC(=O)N4)CC2)n1 (stereo not drawn) [Example 26, 4-Hydroxy-3-[1-(6-methylpyrazin-2-yl)piperidin-4-yl]-4-(trifluoromethyl)-1,4,5,7-tetrahydro-6H-pyrazolo[3,4-b]pyridin-6-one]",0.26
3,"N#Cc1ccc(N2CCC(c3n[nH]c4c3C(O)(C(F)(F)F)CC(=O)N4)CC2)cc1 (stereo not drawn) [Example 35, 4-{4-[4-Hydroxy-6-oxo-4-(trifluoromethyl)-4,5,6,7-tetrahydro-1H-pyrazolo[3,4-b]pyridin-3-yl]piperidin-1-yl}benzonitrile]",0.38
4,"COC(=O)c1cc(N2CCC(c3n[nH]c4c3C(O)(C(F)(F)F)CC(=O)N4)CC2)ncc1C(F)(F)F (stereo not drawn) [Example 82, Methyl 2-{4-[4-hydroxy-6-oxo-4-(trifluoromethyl)-4,5,6,7-tetrahydro-1H-pyrazolo[3,4-b]pyridin-3-yl]piperidin-1-yl}-5-(trifluoromethyl)pyridine-4-carboxylate]",0.032
5,"O=C1CC(O)(C(F)(F)F)c2c(C3CCN(c4cnc(C5CC5)nc4)CC3)n[nH]c2N1 (stereo not drawn) [Example 66, 3-[1-(2-Cyclopropylpyrimidin-5-yl)piperidin-4-yl]-4-hydroxy-4-(trifluoromethyl)-1,4,5,7-tetrahydro-6H-pyrazolo[3,4-b]pyridin-6-one]",0.068
6,"N#Cc1cccc(N2CCC(c3n[nH]c4c3C(O)(C(F)(F)F)CC(=O)N4)CC2)c1 (stereo not drawn) [Example 23, 3-{4-[4-Hydroxy-6-oxo-4-(trifluoromethyl)-4,5,6,7-tetrahydro-1H-pyrazolo[3,4-b]pyridin-3-yl]piperidin-1-yl}benzonitrile]",0.12
7,"N#Cc1ccnc(N2CCC(c3n[nH]c4c3C(O)(C(F)(F)F)CC(=O)N4)CC2)c1 (stereo not drawn) [Example 33, 2-{4-[4-Hydroxy-6-oxo-4-(trifluoromethyl)-4,5,6,7-tetrahydro-1H-pyrazolo[3,4-b]pyridin-3-yl]piperidin-1-yl}pyridine-4-carbonitrile]",0.056
8,"O=C1CC(O)(C(F)(F)F)c2c(C3CCN(c4ccc(C(F)(F)F)cn4)CC3)n[nH]c2N1 (single isomer, unassigned; (+)) [Compound 49-2, (+)-4-hydroxy-4-(trifluoromethyl)-3-{1-[5-(trifluoromethyl)pyridin-2-yl]piperidin-4-yl}-1,4,5,7-tetrahydro-6H-pyrazolo[3,4-b]pyridin-6-one]",3.77
9,"N#Cc1cc(N2CCC(c3n[nH]c4c3C(O)(C(F)(F)F)CC(=O)N4)CC2)ccc1OC(F)F (stereo not drawn) [Example 60, 2-(Difluoromethoxy)-5-{4-[4-hydroxy-6-oxo-4-(trifluoromethyl)-4,5,6,7-tetrahydro-1H-pyrazolo[3,4-b]pyridin-3-yl]piperidin-1-yl}benzonitrile]",0.021
10,"O=C1CC(O)(C(F)(F)F)c2c(C3CCN(c4ccc(Br)cn4)CC3)n[nH]c2N1 (stereo not drawn) [Example 74, 3-[1-(5-Bromopyridin-2-yl)piperidin-4-yl]-4-hydroxy-4-(trifluoromethyl)-1,4,5,7-tetrahydro-6H-pyrazolo[3,4-b]pyridin-6-one]",0.14
11,"CC(C)(C)c1ncc(N2CCC(c3n[nH]c4c3C(O)(C(F)(F)F)CC(=O)N4)CC2)cn1 (stereo not drawn) [Example 72, 3-[1-(2-tert-Butylpyrimidin-5-yl)piperidin-4-yl]-4-hydroxy-4-(trifluoromethyl)-1,4,5,7-tetrahydro-6H-pyrazolo[3,4-b]pyridin-6-one]",0.023
12,"CN(C)c1ccc(N2CCC(c3n[nH]c4c3C(O)(C(F)(F)F)CC(=O)N4)CC2)cn1 (stereo not drawn) [Example 68, 3-{1-[6-(Dimethylamino)pyridin-3-yl]piperidin-4-yl}-4-hydroxy-4-(trifluoromethyl)-1,4,5,7-tetrahydro-6H-pyrazolo[3,4-b]pyridin-6-one]",0.76
13,"O=C1CC(O)(C(F)(F)F)c2c(C3CCN(c4ccc(F)cc4)CC3)n[nH]c2N1 (stereo not drawn) [Example 70, 3-[1-(4-Fluorophenyl)piperidin-4-yl]-4-hydroxy-4-(trifluoromethyl)-1,4,5,7-tetrahydro-6H-pyrazolo[3,4-b]pyridin-6-one]",0.3
14,"N#Cc1cnc(N2CCC(c3n[nH]c4c3C(O)(C(F)(F)F)CC(=O)N4)CC2)s1 (stereo not drawn) [Example 81, 2-{4-[4-Hydroxy-6-oxo-4-(trifluoromethyl)-4,5,6,7-tetrahydro-1H-pyrazolo[3,4-b]pyridin-3-yl]piperidin-1-yl}-1,3-thiazole-5-carbonitrile]",0.47
15,"O=C1CC(O)(C(F)(F)F)c2c(C3CCN(c4ccc(C(F)(F)F)c(Cl)n4)CC3)n[nH]c2N1 (stereo not drawn) [Compound 98-a, 3-{1-[6-Chloro-5-(trifluoromethyl)pyridin-2-yl]piperidin-4-yl}-4-hydroxy-4-(trifluoromethyl)-1,4,5,7-tetrahydro-6H-pyrazolo[3,4-b]pyridin-6-one]",0.023
16,"O=C1CC(O)(C(F)(F)F)c2c(C3CCN(c4ccc(OC(F)(F)F)cn4)CC3)n[nH]c2N1 (stereo not drawn) [Example 76, 4-Hydroxy-3-{1-[5-(trifluoromethoxy)pyridin-2-yl]piperidin-4-yl}-4-(trifluoromethyl)-1,4,5,7-tetrahydro-6H-pyrazolo[3,4-b]pyridin-6-one]",0.018
